Data: ChEMBL document CHEMBL1128024, “Carbocyclic analogues of hydroxyethylamine containing inhibitors of HIV proteinase” (Bioorg Med Chem Lett, 1994)

Experiments:
[1] = system: Human immunodeficiency virus; test: In vitro antiviral activity against human immuno deficiency virus was determined; type: functional, organism-based; conditions: Human immunodeficiency virus 1
[2] = biological target: Human immunodeficiency virus type 1 protease (Human immunodeficiency virus 1, UniProt Q72874); test: Inhibitory activity against HIV-1 Protease was determined

SMILES	IC50 [1]	IC50 [2]
CC(C)(C)NC(=O)[C@@H]1CCCCN1C[C@@H](O)[C@H](Cc1ccccc1)NC(=O)[C@H](CC(N)=O)NC(=O)OCc1ccccc1	300 nM	
CC(C)(C)NC(=O)[C@@H]1CCCCN1C[C@@H](O)[C@H](Cc1ccccc1)NC(=O)[C@H](CC(N)=O)NC(=O)c1ccc2ccccc2n1	17 nM	2 nM
CC(C)(C)NC(=O)[C@@H]1C[C@@H]2CCCCC2CN1C[C@@H](O)[C@H](Cc1ccccc1)NC(=O)[C@H](CC(N)=O)NC(=O)c1ccc2ccccc2n1 (single isomer, unassigned)	2 nM	
CC(C)(C)NC(=O)[C@@H]1CCCC[C@@H]1C[C@@H](O)[C@H](Cc1ccccc1)NC(=O)[C@H](CC(N)=O)NC(=O)OCc1ccccc1	1000 nM	

Now from value to molecule, other results behind:

IC50 [1]	SMILES	IC50 [2]
4 nM	CC(C)(C)NC(=O)[C@@H]1CCCC[C@H]1C[C@@H](O)[C@H](Cc1ccccc1)NC(=O)[C@H](CC(N)=O)NC(=O)c1ccc2ccccc2n1	
40 nM	CC(C)(C)NC(=O)[C@@H]1CCCC[C@H]1C[C@@H](O)[C@H](Cc1ccccc1)NC(=O)[C@H](CC(N)=O)NC(=O)OCc1ccccc1 (mixture of isomers)	
